# From patent publication US12053470B2, “Pharmaceutical combination comprising an ALK inhibitor and a SHP2 inhibitor” (Novartis AG, priority 2017, dated 2024)
# pIC50: −log10 of the molar value.
# Legend:
# [1] = system: Ceritinib resistant MGH049 cells; assay: Cell colony formation assay with ceritinib resistant MGH049 cells;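 also: tested compounds are SHP2 inhibitors given alone, colonies fixed and crystal violet stained, DMSO reference taken as the mean of six readings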; assay type: cell-based, human; details: Homo sapiens, 168 h; compound of Table 1 (3 μM) alone, 7 days; normalized to DMSO without compound = 100; read-out: Normalized Crystal Violet abs. (590 nm) DMSO
# [2] = biological target: SHP2 (Homo sapiens (Human), UniProt Q06124); assay: SHP2 allosteric inhibition assay (DiFMUP prompt fluorescence); assay type: biochemical
SMILES,pIC50 [2],activity at 3 µM [1]
"C[C@@H]1OCC2(CCN(c3cnc(-c4cccc(Cl)c4Cl)c(N)n3)CC2)[C@@H]1N [compound 7, (3S,4S)-8-(6-amino-5-(2,3-dichlorophenyl)pyrazin-2-yl)-3-methyl-2-oxa-8-azaspiro[4.5]decan-4-amine]",7.41,98.2%
"Nc1nc(N2CCC3(CCC[C@H]3N)CC2)cnc1-c1cccc(Cl)c1Cl [compound 9, (R)-8-(6-amino-5-(2,3-dichlorophenyl)pyrazin-2-yl)-8-azaspiro[4.5]decan-1-amine]",7.14,118%
"Nc1nc(N2CCC3(CC2)COC[C@H]3N)cnc1Sc1cccnc1C(F)(F)F [compound 10, (S)-8-(6-amino-5-((2-(trifluoromethyl)pyridin-3-yl)thio)pyrazin-2-yl)-2-oxa-8-azaspiro[4.5]decan-4-amine]",7.60,–
"CC[C@@H]1OCC2(CCN(c3cnc(Sc4ccnc(N)c4Cl)c(N)n3)CC2)[C@@H]1N [compound 17, (3S,4S)-8-(6-amino-5-((2-amino-3-chloropyridin-4-yl)thio)pyrazin-2-yl)-3-ethyl-2-oxa-8-azaspiro[4.5]decan-4-amine]",8.05,29.4%
"C[C@@H]1OCC2(CCN(c3cnc(Sc4ccnc(N)c4Cl)cn3)CC2)[C@@H]1N [compound 22, (3S,4S)-8-(5-((2-amino-3-chloropyridin-4-yl)thio)pyrazin-2-yl)-3-methyl-2-oxa-8-azaspiro[4.5]decan-4-amine]",8.10,19.5%
"Nc1nc(N2CCC3(CC2)COC[C@H]3N)cnc1Sc1cccc(NC(=O)c2c(O)nc3n(c2=O)CCCC3)c1Cl [compound 53, (S)-N-(3-((3-amino-5-(4-amino-2-oxa-8-azaspiro[4.5]decan-8-yl)pyrazin-2-yl)thio)-2-chlorophenyl)-2-hydroxy-4-oxo-6,7,8,9-tetrahydro-4H-pyrido[1,2-a]pyrimidine-3-carboxamide]",–,46.5%
"CN1C(=O)C(C(=O)Nc2cccc(Sc3ncc(N4CCC(C)(N)CC4)nc3N)c2Cl)=C(O)C1Cc1ccccc1 (centres unmarked) [compound 54, N-(3-((3-amino-5-(4-amino-4-methylpiperidin-1-yl)pyrazin-2-yl)thio)-2-chlorophenyl)-5-benzyl-4-hydroxy-1-methyl-2-oxo-2,5-dihydro-1H-pyrrole-3-carboxamide]",–,132%

# More lines, main results first:
pIC50 [2],SMILES,activity at 3 µM [1]
6.81,"Nc1nc(N2CCC3(CCCN3)CC2)cnc1-c1cccc(Cl)c1Cl [compound 8, 3-(2,3-dichlorophenyl)-6-(1,8-diazaspiro[4.5]decan-8-yl)pyrazin-2-amine]",99.9%
8.05,"CC1CCC2(CCN(c3cnc(Sc4ccnc(N)c4Cl)c(N)n3)CC2)[C@@H]1N (stereo partly drawn) [compound 15, (1R)-8-(6-amino-5-((2-amino-3-chloropyridin-4-yl)thio)pyrazin-2-yl)-2-methyl-8-azaspiro[4.5]decan-1-amine]",31%
8.35,"Nc1nccc(Sc2cnc(N3CCC4(CC3)C[C@@H](O)C[C@H]4N)cn2)c1Cl [compound 18, (2R,4R)-4-amino-8-(5-((2-amino-3-chloropyridin-4-yl)thio)pyrazin-2-yl)-8-azaspiro[4.5]decan-2-ol]",32.3%
8.22,"C[C@H]1C[C@@H](N)C2(CCN(c3cnc(Sc4ccnc(N)c4Cl)cn3)CC2)C1 [compound 19, (1R,3R)-8-(5-((2-amino-3-chloropyridin-4-yl)thio)pyrazin-2-yl)-3-methyl-8-azaspiro[4.5]decan-1-amine]",96.1%
8.22,"CC1CCC2(CCN(c3cnc(Sc4ccnc(N)c4Cl)cn3)CC2)[C@@H]1N (stereo partly drawn) [compound 20, (1R)-8-(5-((2-amino-3-chloropyridin-4-yl)thio)pyrazin-2-yl)-2-methyl-8-azaspiro[4.5]decan-1-amine]",54.7%
7.85,"C[C@@H]1OCC2(CCN(c3cnc(Sc4cc(N)nc(Cl)c4Cl)cn3)CC2)[C@@H]1N [compound 21, (3S,4S)-8-(5-((6-amino-2,3-dichloropyridin-4-yl)thio)pyrazin-2-yl)-3-methyl-2-oxa-8-azaspiro[4.5]decan-4-amine]",48.2%
